EP0923529B1 (Bayer Corporation, priority 1996, dated 1997)
Like-named read-outs stand apart in the source and are kept apart here.

Key:
Format in all cases: biochemical
MMP-9 = molecular target: T1, MMP-9 (Homo sapiens, UniProt P14780); test: P218 quenched fluorescence assay (MMP Microfluorometric Profiling Assay), MMP-9; conditions: for IC50: P218 substrate 6 µM, 25 min at 37 °C, pH 6.5; for inhibition at 5 µM: read-out: MMP-9 % inhibition at 5 µM, inhibitor at 5 µM, given as I = x %
T1 construct: made in house
T1 sequence (P14780 107-707 limits assumed): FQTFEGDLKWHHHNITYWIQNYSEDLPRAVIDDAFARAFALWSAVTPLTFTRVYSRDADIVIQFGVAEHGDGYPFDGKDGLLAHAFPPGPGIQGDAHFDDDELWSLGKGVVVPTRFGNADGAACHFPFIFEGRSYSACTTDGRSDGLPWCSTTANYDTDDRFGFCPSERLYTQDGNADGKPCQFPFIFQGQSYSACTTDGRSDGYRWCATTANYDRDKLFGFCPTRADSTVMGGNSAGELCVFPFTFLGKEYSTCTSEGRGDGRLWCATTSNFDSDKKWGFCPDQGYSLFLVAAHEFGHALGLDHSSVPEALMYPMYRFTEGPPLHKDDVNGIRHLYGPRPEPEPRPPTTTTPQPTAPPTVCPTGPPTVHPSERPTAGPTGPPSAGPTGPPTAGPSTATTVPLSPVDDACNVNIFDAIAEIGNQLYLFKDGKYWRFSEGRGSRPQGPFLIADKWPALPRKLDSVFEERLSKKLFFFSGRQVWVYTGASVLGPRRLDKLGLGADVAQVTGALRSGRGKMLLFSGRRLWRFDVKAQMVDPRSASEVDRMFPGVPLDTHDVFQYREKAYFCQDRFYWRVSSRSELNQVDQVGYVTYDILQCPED
From the text: (§1) The P218 quenched fluorescence assay (Microfluorometric Profiling Assay) is a modification of that originally described by C. G. Knight et al., FEBS Letters, 296, 263-266 (1992) for a related substrate and a variety of matrix metalloproteinases (MMPs) in cuvettes. The assay was run with each exemplary compound of the invention and the three MMPs, MMP-3, MMP-9 and MMP-2, analyzed in parallel, adapted as follows for a 96-well microtitre plate and a Hamilton AT® workstation.
(§2) P218 is a synthetic substrate containing a 4-acetyl-7-methoxycoumarin (MCA) group in the N-terminal position and a 3-(2,4-dinitrophenyl)-(L)-2,3-diaminopropionyl (DPA) group internally. This is a modification of a peptide reported by Knight (1992) that was used as a substrate for matrix metalloproteinases. Once the P218 peptide is cleaved (putative clip site at the Ala-Leu bond), the fluorescence of the MCA group can be detected on a fluorometer with excitation at 328 nm and emission at 393 nm. P218 is currently being produced by BACHEM Bioscience, Inc. exclusively for the Bayer Corp. P218 has the structure: H-MCA-Pro-Lys-Pro-Leu-Ala-Leu-DPA-Ala-Arg-NH2 (MW 1332.2)
Human Recombinant Pro-MMP-9: Human recombinant pro-gelatinase B (pro-MMP-9) derived from U937 cDNA as described by S. M. Wilhelm et al., J. Biol. Chem., 264, 17213-17221 (1989) was expressed as the full-length form using a baculovirus protein expression system. The pro-enzyme was purified using methods previously described by M.S. Hibbs, et al., J. Biol. Chem., 260, 2493-500 (1984).
Activation of Pro-MMP-9 : Pro-MMP-9 (20 µg/mL) in an MMP-9 activation buffer consisting of 50 mM Tris at pH 7.4, 150 mM NaCl, 10 mM CaCl2 and 0.005% Brij-35 was activated by incubation with a 0.5 mM p-aminophenylmercuric acetate (APMA) for 3.5 h at 37 °C. The enzyme was dialyzed against the same buffer to remove APMA.
(§3) Hamilton Microlab AT Plus®: The MMP-profiling assay was performed robotically using a Hamilton MicroLab AT Plus®. The Hamilton was programmed to: (1) serially dilute up to 11 potential inhibitors automatically using a 2.5 mM stock solution of the inhibitor in 100% DMSO; (2) distribute substrate followed by inhibitor into a 96-well Cytofluor plate; and (3) add a single enzyme to the plate with mixing to start the reaction. Subsequent plates for each additional enzyme were prepared automatically by beginning the program at the substrate addition point, remixing the diluted inhibitors, and beginning the reaction by addition of enzyme. In this way, all MMP assays were done using the same inhibitor dilutions.
(§4) Millipore Cytofluor II: Following incubation, the plate was read on a Cytofluor II fluorometric plate reader with excitation at 340 nm and emission at 395 nm with the gain set at 80.
(§5) Microfluorometric Reaction Buffer (MRB): Dilutions of test compounds, enzymes and P218 substrate for the microfluorometric assay were made in microfluorometric reaction buffer (MRB) consisting of 50 mM 2-(N-morpholino)ethanesulfonic acid (MES) at pH 6.5 with 10 mM CaCl2, 150 mM NaCl, 0.005 % Brij-35 and 1% DMSO.
MMP Microfluorometric Profiling Assay. The assay was done with a final P218 concentration of 6 µM, approximately 0.5 to 0.8 nM of activated MMP (one MMP per 96-well plate), and with variable inhibitor concentrations. The Hamilton MicroLab AT Plus® was programmed to serially dilute up to 11 compounds from a 2.5 mM stock (100% DMSO) to 10-times the final compound concentrations in the assay. Initially, the instrument delivered various amounts of microfluorometric reaction buffer (MRB) to a 96-tube rack of 1 mL Marsh dilution tubes. The instrument picked up 20 µL inhibitor (2.5 mM) and mixed it with buffer in row A of the Marsh rack, resulting in a 50 µM inhibitor concentration. The inhibitors were then serially diluted to 10, 5, 1, 0.2, 0.05 and 0.01 µM. […] The instrument re-mixed and loaded 14.5 µL of diluted compound from rows A to G in the Marsh rack to the corresponding rows in the microtiter plate. […]

MMP-3 = molecular target: T2, MMP-3 (Homo sapiens, UniProt P08254); test: P218 quenched fluorescence assay (MMP Microfluorometric Profiling Assay), MMP-3; conditions: for IC50: P218 substrate 6 µM, 25 min at 37 °C, pH 6.5; for inhibition at 5 µM: inhibitor at 5 µM, given as I = x %
T2 construct: made in house; host or cells: CHO cells
T2 sequence (P08254 100-477): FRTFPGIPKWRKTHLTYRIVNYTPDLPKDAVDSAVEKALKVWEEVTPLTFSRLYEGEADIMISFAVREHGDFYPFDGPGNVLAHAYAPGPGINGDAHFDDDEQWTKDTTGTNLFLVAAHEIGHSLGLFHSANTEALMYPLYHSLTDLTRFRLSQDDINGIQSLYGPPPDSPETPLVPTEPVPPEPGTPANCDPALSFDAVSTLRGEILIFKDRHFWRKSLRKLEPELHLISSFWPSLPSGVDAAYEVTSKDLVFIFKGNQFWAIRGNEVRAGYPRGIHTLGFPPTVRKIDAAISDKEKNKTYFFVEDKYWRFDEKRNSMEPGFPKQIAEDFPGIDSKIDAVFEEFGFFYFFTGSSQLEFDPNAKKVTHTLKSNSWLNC
From the text: as §1, §2
Recombinant Human CHO Pro-MMP-3: Human CHO pro-stromelysin-257 (pro-MMP-3) was expressed and purified as described by T. J. Housley et al., J. Biol. Chem., 268, 4481-4487 (1993).
Activation of Pro-MMP-3: Pro-MMP-3 at 1.72 µM (100 µg/mL) in an MMP-3 activation buffer consisting of 5 mM Tris at pH 7.5, 5 mM CaCl2, 25 mM NaCl, and 0.005% Brij-35 was activated by incubation with TPCK (N-tosyl-(L)-phenylalanine chloromethyl ketone) trypsin (1:100 w/w to pro-MMP-3) at 25 °C for 30 min. The reaction was stopped by addition of soybean trypsin inhibitor (SBTI; 5:1 w/w to trypsin concentration).
as §3, §4, §5
MMP Microfluorometric Profiling Assay. The assay was done with a final P218 concentration of 6 µM, approximately 0.5 to 0.8 nM of activated MMP (one MMP per 96-well plate), and with variable inhibitor concentrations. The Hamilton MicroLab AT Plus® was programmed to serially dilute up to 11 compounds from a 2.5 mM stock (100% DMSO) to 10-times the final compound concentrations in the assay. Initially, the instrument delivered various amounts of microfluorometric reaction buffer (MRB) to a 96-tube rack of 1 mL Marsh dilution tubes. The instrument picked up 20 µL inhibitor (2.5 mM) and mixed it with buffer in row A of the Marsh rack, resulting in a 50 µM inhibitor concentration. The inhibitors were then serially diluted to 10, 5, 1, 0.2, 0.05 and 0.01 µM. […] The instrument re-mixed and loaded 14.5 µL of diluted compound from rows A to G in the Marsh rack to the corresponding rows in the microtiter plate.

MMP-2 = molecular target: T3, MMP-2 (Homo sapiens, UniProt P08253); test: P218 quenched fluorescence assay (MMP Microfluorometric Profiling Assay), MMP-2; conditions: for inhibition at 5 µM: read-out: MMP-2 % inhibition at 5 µM, inhibitor at 5 µM, given as I = x %
T3 sequence (P08253 110-660): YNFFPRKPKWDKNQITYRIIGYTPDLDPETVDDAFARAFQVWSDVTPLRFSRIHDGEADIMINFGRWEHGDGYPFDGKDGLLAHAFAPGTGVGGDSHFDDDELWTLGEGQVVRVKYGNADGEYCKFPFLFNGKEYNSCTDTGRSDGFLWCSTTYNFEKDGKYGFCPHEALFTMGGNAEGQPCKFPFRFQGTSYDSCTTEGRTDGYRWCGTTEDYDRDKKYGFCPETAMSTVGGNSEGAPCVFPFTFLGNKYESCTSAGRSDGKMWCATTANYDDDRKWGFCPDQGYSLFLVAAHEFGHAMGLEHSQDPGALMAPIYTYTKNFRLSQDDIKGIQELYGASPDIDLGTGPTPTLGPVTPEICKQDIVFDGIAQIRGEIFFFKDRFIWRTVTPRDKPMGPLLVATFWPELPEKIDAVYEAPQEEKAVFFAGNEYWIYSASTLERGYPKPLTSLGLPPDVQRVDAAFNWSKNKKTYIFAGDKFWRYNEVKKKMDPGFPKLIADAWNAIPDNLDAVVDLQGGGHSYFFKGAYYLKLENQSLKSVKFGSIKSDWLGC

[1] = P218 substrate 6 µM, 25 min at 37 °C, pH 6.5, read-out: MMP-2 IC50

| SMILES | IC50 (MMP-9) [nM] | IC50 (MMP-3) [nM] | IC50 (MMP-2; [1]) [nM] | inhibition at 5 µM (MMP-3) [%] | IC50 (MMP-2) [nM] | inhibition at 5 µM (MMP-9) [%] | inhibition at 5 µM (MMP-2) [%] |
| --- | --- | --- | --- | --- | --- | --- | --- |
| O=C(CC(CCCc1ccccc1)C(=O)O)c1ccc(C#CCO)cc1 (racemic) [Example 1, 4-(4-(3-hydroxyprop-1-ynyl)phenyl)-4-oxo-2-(3-phenylpropyl)butyric acid] | 1850 | 3300 | 485 | – | – | – | – |
| O=C(CC(CCN1C(=O)c2ccccc2C1=O)C(=O)O)c1ccc(Br)cc1 (stereo not shown) [Compound B, 4-(4-bromophenyl)-4-oxo-2-(2-phthalimidoethyl) butyric acid, reference compound] | 1450 | – | – | 46 | 2400 | – | – |
| O=C(CC(CCCc1ccccc1)C(=O)O)c1ccccc1 (stereo not shown) [Compound C, 4-phenyl-4-oxo-2-(3-phenylpropyl)butyric acid, reference compound] | – | – | – | 20 | – | 23 | 36 |
| O=C(CC(CCN1C(=O)c2ccccc2C1=O)C(=O)O)c1ccccc1 (stereo not shown) [Compound D, 4-phenyl-4-oxo-2-(2-phthalimidoethyl)butyric acid, reference compound] | 1000 | 5000 | – | – | 1400 | – | – |
| CC(C)(C)[Si](C)(C)OCCCCC#Cc1ccc(C(=O)CC(CCN2C(=O)c3ccccc3C2=O)C(=O)O)cc1 (stereo not shown) [Compound E, reference compound] | 5050 | 5100 | 1450 | – | – | – | – |
| CCCCCCCCCCCCCCOc1ccc(C(=O)CC(CCN2C(=O)c3ccccc3C2=O)C(=O)O)cc1 (stereo not shown) [Compound F, 4-(4-tetradecyloxyphenyl)-4-oxo-2-(2-phthalimidoethyl)butyric acid, reference compound] | – | – | – | 18 | – | 6 | 16 |
| COc1ccc(C(=O)CC(CCN2C(=O)c3ccccc3C2=O)C(=O)O)cc1 (stereo not shown) [Compound G, 4-(4-methoxyphenyl)-4-oxo-2-(2-phthalimidoethyl)butyric acid, reference compound] | – | – | – | 29 | – | 46 | 48 |
| CCCCC#Cc1ccc(C(=O)CC(CCCc2ccccc2)C(=O)O)cc1 (stereo not shown) [Example 2, 4-(4-(hex-1-ynyl)phenyl)-4-oxo-2-(3-phenylpropyl)butyric acid] | 1570 | 1870 | – | – | 460 | – | – |
| O=C(CC(CCCc1ccccc1)C(=O)O)c1ccc(C#CCCCCO)cc1 (stereo not shown) [Example 3, 4-(4-(6-hydroxyhex-12-ynyl)phenyl)-4-oxo-2-(3-phenylpropyl)butyric acid] | 4350 | – | 640 | 43 | – | – | – |
| CCCCC#Cc1ccc(C(=O)CC(CCN2C(=O)c3ccccc3C2=O)C(=O)O)cc1 (stereo not shown) [Example 4] | 20 | 125 | – | – | 42 | – | – |
| O=C(CC(CCN1C(=O)c2ccccc2C1=O)C(=O)O)c1ccc(C#CCCCCO)cc1 (stereo not shown) [Example 5, 4-(4-(6-hydroxyhex-1-ynyl)phenyl)-4-oxo-2-(2-phthalimidoethyl)butyric acid] | 150 | 870 | – | – | 92 | – | – |
| O=C(CC(CCN1C(=O)c2ccccc2C1=O)C(=O)O)c1ccc(C#CCO)cc1 (stereo not shown) [Example 6, 4-(4-(3-hydroxyprop-1-ynyl)phenyl)-4-oxo-2-(2-phthalimidoethyl)butyric acid] | 76 | 565 | – | – | 130 | – | – |
| CCCCCCc1ccc(C(=O)CC(CCN2C(=O)c3ccccc3C2=O)C(=O)O)cc1 (stereo not shown) [Example 7, 4-(4-hexylphenyl)-4-oxo-2-(2-phthalimidoethyl) butyric acid] | 400 | 1040 | – | – | 295 | – | – |
| CCCCCCCOc1ccc(C(=O)CC(CCN2C(=O)c3ccccc3C2=O)C(=O)O)cc1 (stereo not shown) [Example 10, 4-(4-heptyloxyphenyl)-4-oxo-2-(2-phthalimidoethyl) butyric acid] | 85 | 61 | – | – | 40 | – | – |
| CCCCCCOc1ccc(C(=O)CC(CCN2C(=O)c3ccccc3C2=O)C(=O)O)cc1 (stereo not shown) [Example 11, 4-(4-hexyloxyphenyl)-4-oxo-2-(2-phthalimidoethyl) butyric acid] | 68 | 114 | – | – | 79 | – | – |
| CCCCCCCCCCOc1ccc(C(=O)CC(CCN2C(=O)c3ccccc3C2=O)C(=O)O)cc1 (stereo not shown) [Example 12, 4-(4-decyloxyphenyl)-4-oxo-2-(2-phthalimidoethyl) butyric acid] | 360 | – | – | – | – | – | – |
| O=C(CC(CCN1C(=O)c2ccccc2C1=O)C(=O)O)c1ccc(OCCOCc2ccccc2)cc1 (stereo not shown) [Example 13, 4-(4-(2-benzyloxyethoxy)phenyl)-4-oxo-2-(2-phthalimidoethyl)butyric acid] | 355 | 82 | – | – | 53 | – | – |
